# Like-named read-outs stand apart in the source and are kept apart here.
# How the values were obtained:
# dog liver microsomes = assay type: in vitro ADME; details: for Km / Vmax: formation of (+)-M5 from substrate
# cat liver microsomes = assay type: in vitro ADME; details: pooled cat liver microsomes (n = 16); (+)-M1 at 10 μM, (+)-M2 at 0.5 μM
# CYP2C41 = molecular target: T1, CYP2C41 (Canis lupus familiaris, UniProt O62671); assay type: in vitro ADME, canine; details: recombinant CYP2C41; (+)-M1 10 μM, (+)-M2 0.5 μM
# T1 sequence (O62671 1-489): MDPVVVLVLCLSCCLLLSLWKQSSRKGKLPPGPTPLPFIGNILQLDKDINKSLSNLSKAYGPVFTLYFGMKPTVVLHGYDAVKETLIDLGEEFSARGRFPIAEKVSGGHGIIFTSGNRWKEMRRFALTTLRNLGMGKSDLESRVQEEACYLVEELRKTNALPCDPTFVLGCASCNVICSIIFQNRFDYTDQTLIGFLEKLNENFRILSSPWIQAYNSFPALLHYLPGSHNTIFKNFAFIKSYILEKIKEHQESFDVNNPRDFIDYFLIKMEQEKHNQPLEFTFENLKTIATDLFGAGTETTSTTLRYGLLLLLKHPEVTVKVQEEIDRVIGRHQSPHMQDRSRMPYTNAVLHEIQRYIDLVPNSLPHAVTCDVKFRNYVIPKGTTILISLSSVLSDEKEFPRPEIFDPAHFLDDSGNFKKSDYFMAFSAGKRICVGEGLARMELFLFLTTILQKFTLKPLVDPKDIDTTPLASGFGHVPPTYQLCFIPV
# CYP3A12 = CYP3A12 (Canis lupus familiaris, UniProt P24463); assay type: in vitro ADME, canine; details: recombinant CYP3A12; (+)-M1 10 μM, (+)-M2 0.5 μM
# CYP2D15 = molecular target: T2, CYP2D15 (Canis lupus familiaris, UniProt Q29473); assay type: in vitro ADME, canine; details: recombinant CYP2D15; (+)-M1 10 μM, (+)-M2 0.5 μM
# T2 sequence (Q29473 1-500): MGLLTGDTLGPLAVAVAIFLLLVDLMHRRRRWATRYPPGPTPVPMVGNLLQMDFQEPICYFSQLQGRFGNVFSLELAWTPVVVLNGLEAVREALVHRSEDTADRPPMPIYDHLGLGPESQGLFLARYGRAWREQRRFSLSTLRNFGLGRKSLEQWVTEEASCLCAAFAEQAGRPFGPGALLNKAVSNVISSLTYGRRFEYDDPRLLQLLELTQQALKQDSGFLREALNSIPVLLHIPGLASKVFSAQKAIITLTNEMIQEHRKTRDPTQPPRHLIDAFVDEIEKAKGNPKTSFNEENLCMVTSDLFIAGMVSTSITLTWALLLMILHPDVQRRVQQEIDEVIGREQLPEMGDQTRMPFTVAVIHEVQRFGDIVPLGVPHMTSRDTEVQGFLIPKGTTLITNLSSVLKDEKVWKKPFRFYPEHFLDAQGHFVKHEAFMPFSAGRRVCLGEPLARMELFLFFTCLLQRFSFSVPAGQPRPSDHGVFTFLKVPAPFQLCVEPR
# CYP1A1 = molecular target: T3, CYP1A1 (Canis lupus familiaris, UniProt P56590); assay type: in vitro ADME, canine; details: recombinant CYP1A1; (+)-M1 10 μM, (+)-M2 0.5 μM
# T3 sequence (P56590 1-524): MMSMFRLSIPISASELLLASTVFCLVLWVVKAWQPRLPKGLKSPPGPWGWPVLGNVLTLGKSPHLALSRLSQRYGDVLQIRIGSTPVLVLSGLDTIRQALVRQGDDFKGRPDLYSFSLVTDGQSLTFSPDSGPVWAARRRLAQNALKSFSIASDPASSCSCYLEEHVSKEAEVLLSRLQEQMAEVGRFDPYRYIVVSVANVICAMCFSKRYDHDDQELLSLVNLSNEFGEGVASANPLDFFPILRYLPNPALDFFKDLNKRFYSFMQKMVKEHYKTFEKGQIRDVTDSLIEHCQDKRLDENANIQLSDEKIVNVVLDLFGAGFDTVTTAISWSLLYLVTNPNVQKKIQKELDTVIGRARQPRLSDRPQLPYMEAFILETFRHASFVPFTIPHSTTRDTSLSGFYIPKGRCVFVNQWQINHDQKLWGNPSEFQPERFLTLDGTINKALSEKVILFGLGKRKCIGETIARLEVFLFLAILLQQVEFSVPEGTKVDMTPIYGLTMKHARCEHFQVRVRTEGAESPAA
# CYP1A2 = molecular target: T4, CYP1A2 (Canis lupus familiaris, UniProt P56592); assay type: in vitro ADME, canine; details: recombinant CYP1A2; (+)-M1 10 μM, (+)-M2 0.5 μM
# T4 sequence (P56592 1-512): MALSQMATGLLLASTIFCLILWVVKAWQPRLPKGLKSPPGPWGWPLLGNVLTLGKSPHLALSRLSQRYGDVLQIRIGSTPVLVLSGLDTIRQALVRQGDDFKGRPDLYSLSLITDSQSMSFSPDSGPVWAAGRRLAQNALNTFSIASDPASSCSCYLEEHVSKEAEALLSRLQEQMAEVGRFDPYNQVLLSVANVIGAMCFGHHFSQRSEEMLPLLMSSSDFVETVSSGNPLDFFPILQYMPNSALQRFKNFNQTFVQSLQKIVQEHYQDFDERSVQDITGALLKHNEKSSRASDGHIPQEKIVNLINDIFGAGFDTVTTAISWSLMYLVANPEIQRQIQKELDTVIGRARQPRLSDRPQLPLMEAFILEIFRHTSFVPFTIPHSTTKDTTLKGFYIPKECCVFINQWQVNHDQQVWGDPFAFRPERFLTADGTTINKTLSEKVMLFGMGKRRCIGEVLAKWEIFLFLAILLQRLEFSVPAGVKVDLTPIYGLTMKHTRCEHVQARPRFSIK
# CYP3A26 = assay type: in vitro ADME, canine; details: recombinant CYP3A26; (+)-M1 10 μM, (+)-M2 0.5 μM
# Sequence of CYP3A12 (P24463 whole entry): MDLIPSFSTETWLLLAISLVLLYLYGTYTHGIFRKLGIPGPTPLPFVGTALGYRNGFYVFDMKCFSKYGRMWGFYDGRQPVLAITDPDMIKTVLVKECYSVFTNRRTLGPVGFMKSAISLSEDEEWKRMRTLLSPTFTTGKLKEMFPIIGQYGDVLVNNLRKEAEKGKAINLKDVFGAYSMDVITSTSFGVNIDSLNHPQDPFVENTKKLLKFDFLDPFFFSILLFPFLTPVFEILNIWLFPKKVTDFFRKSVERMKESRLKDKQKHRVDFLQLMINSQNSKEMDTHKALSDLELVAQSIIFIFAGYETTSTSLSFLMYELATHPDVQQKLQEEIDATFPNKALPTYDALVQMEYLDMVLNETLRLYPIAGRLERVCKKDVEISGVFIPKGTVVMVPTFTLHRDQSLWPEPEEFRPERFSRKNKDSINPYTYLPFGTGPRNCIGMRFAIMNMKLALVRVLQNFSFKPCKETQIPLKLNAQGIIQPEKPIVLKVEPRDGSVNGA
smiles,measurement,setting,value
"CN(C)CC1CCCCC1(O)c1cccc(O)c1.Cl (single isomer, unassigned; (+)) [(+)-M1, (+)-O-desmethyltramadol hydrochloride]",Km,dog liver microsomes; Dog 10 liver microsomes,158 µM
same,Vmax,dog liver microsomes; Dog 10 liver microsomes,63 pmol/min/mg protein
same,Km,dog liver microsomes; Dog 31 liver microsomes,64 µM
same,Vmax,dog liver microsomes; Dog 31 liver microsomes,67 pmol/min/mg protein
same,Km,dog liver microsomes; Dog 46 liver microsomes,108 µM
same,Vmax,dog liver microsomes; Dog 46 liver microsomes,94 pmol/min/mg protein
same,Km,dog liver microsomes; pDLM (liver microsomes pooled from 59 dogs),112 µM
same,Vmax,dog liver microsomes; pDLM (pooled from 59 dogs),61 pmol/min/mg protein
same,(+)-M5 formation rate (in words),"dog liver microsomes; pooled dog liver microsomes (n = 59), (+)-M1 at 10 μM, (+)-M2 at 0.5 μM",highest activities
same,(+)-M5 formation rate (in words),cat liver microsomes,low activities
same,formation rate of (+)-M5 (in words),CYP2C41,somewhat lower activities
same,formation rate of (+)-M5 (in words),CYP3A12,only very low activities
same,formation rate of (+)-M5 (in words),CYP2D15,only very low activities
same,formation rate of (+)-M5 (in words),CYP1A1,only very low activities
same,formation rate of (+)-M5 (in words),CYP1A2,only very low activities
same,formation rate of (+)-M5 (in words),CYP3A26,only very low activities
